From the NIST ThermoML archive (doi:10.1021/je2007764)

Experiment: xn = mol fraction of the nth substance listed
Details: Fluid (supercritical or subcritical phases), Buoyancy - hydrostatic balance with magnetic suspension - one sinker

[C-]#[O+] [carbon monoxide] + N#N
Details | mass density [kg/m3]
250.04 K, 996.97 kPa, x1 = 0.04999 | 13.537
250.04 K, 1999 kPa, x1 = 0.04999 | 27.34
250.04 K, 4009.9 kPa, x1 = 0.04999 | 55.503
250.04 K, 6016.9 kPa, x1 = 0.04999 | 84.044
250.04 K, 16000 kPa, x1 = 0.04999 | 220.89
250.05 K, 969.13 kPa, x1 = 0.1002 | 13.157
250.05 K, 999.78 kPa, x1 = 0.1002 | 13.577
250.05 K, 2004.3 kPa, x1 = 0.1002 | 27.416
250.05 K, 3998.8 kPa, x1 = 0.1002 | 55.373
250.05 K, 7998.5 kPa, x1 = 0.04999 | 112.326
250.05 K, 8999 kPa, x1 = 0.1002 | 126.622
250.05 K, 9999.8 kPa, x1 = 0.04999 | 140.653
250.05 K, 11001 kPa, x1 = 0.1002 | 154.742
250.05 K, 11998 kPa, x1 = 0.04999 | 168.354
250.05 K, 13033 kPa, x1 = 0.1002 | 182.506
250.05 K, 14004 kPa, x1 = 0.04999 | 195.251
250.05 K, 15003 kPa, x1 = 0.1002 | 208.407
250.05 K, 17999 kPa, x1 = 0.04999 | 245.259
250.05 K, 18474 kPa, x1 = 0.04999 | 250.84
250.06 K, 3032.9 kPa, x1 = 0.1002 | 41.76
250.06 K, 5043.2 kPa, x1 = 0.1002 | 70.198
250.06 K, 5999.3 kPa, x1 = 0.1002 | 83.836
250.06 K, 6999.1 kPa, x1 = 0.1002 | 98.128
250.06 K, 7998.3 kPa, x1 = 0.1002 | 112.391
250.06 K, 9998.8 kPa, x1 = 0.1002 | 140.734
250.06 K, 11998 kPa, x1 = 0.1002 | 168.471
250.06 K, 13998 kPa, x1 = 0.1002 | 195.325
250.06 K, 15999 kPa, x1 = 0.1002 | 221.035
250.06 K, 16706 kPa, x1 = 0.1002 | 229.835
250.06 K, 18000 kPa, x1 = 0.1002 | 245.432
250.06 K, 19962 kPa, x1 = 0.1002 | 268.002
275.01 K, 997.91 kPa, x1 = 0.1002 | 12.276
275.01 K, 1984.4 kPa, x1 = 0.1002 | 24.502
275.01 K, 3998.5 kPa, x1 = 0.1002 | 49.641
275.01 K, 5998.9 kPa, x1 = 0.1002 | 74.708
275.01 K, 7999.4 kPa, x1 = 0.1002 | 99.667
275.02 K, 990.79 kPa, x1 = 0.04999 | 12.187
275.02 K, 1996 kPa, x1 = 0.04999 | 24.643
275.02 K, 4000.1 kPa, x1 = 0.04999 | 49.643
275.02 K, 9999.5 kPa, x1 = 0.1002 | 124.305
275.02 K, 11999 kPa, x1 = 0.04999 | 148.339
275.02 K, 12004 kPa, x1 = 0.1002 | 148.483
275.02 K, 13997 kPa, x1 = 0.04999 | 171.74
275.02 K, 14001 kPa, x1 = 0.1002 | 171.88
275.02 K, 15997 kPa, x1 = 0.04999 | 194.336
275.02 K, 15998 kPa, x1 = 0.1002 | 194.459
275.02 K, 17997 kPa, x1 = 0.1002 | 216.135
275.02 K, 18198 kPa, x1 = 0.04999 | 218.123
275.02 K, 19888 kPa, x1 = 0.1002 | 235.72
275.02 K, 19917 kPa, x1 = 0.04999 | 235.882
275.03 K, 6038.6 kPa, x1 = 0.04999 | 75.17
275.03 K, 8036.6 kPa, x1 = 0.04999 | 100.073
275.03 K, 10062 kPa, x1 = 0.04999 | 124.995
299.96 K, 1003.8 kPa, x1 = 0.04999 | 11.294
299.96 K, 2981.9 kPa, x1 = 0.04999 | 33.609
299.96 K, 4997.9 kPa, x1 = 0.04999 | 56.34
299.96 K, 6998.3 kPa, x1 = 0.04999 | 78.744
299.96 K, 9086.5 kPa, x1 = 0.04999 | 101.826
299.96 K, 11000 kPa, x1 = 0.04999 | 122.587
299.96 K, 12998 kPa, x1 = 0.04999 | 143.747
299.96 K, 14954 kPa, x1 = 0.04999 | 163.889
299.97 K, 986.71 kPa, x1 = 0.04999 | 11.101
299.97 K, 992.98 kPa, x1 = 0.1002 | 11.173
299.97 K, 1001.9 kPa, x1 = 0.1002 | 11.274
299.97 K, 1989.8 kPa, x1 = 0.1002 | 22.417
299.97 K, 1993.4 kPa, x1 = 0.04999 | 22.457
299.97 K, 2993.6 kPa, x1 = 0.1002 | 33.744
299.97 K, 3975 kPa, x1 = 0.04999 | 44.812
299.97 K, 3998.4 kPa, x1 = 0.1002 | 45.092
299.97 K, 5020.8 kPa, x1 = 0.1002 | 56.608
299.97 K, 5999.2 kPa, x1 = 0.1002 | 67.6
299.97 K, 6020.2 kPa, x1 = 0.04999 | 67.811
299.97 K, 7034 kPa, x1 = 0.1002 | 79.163
299.97 K, 8024.8 kPa, x1 = 0.04999 | 90.132
299.97 K, 9073.7 kPa, x1 = 0.1002 | 101.718
299.97 K, 9997.1 kPa, x1 = 0.1002 | 111.8
299.97 K, 10017 kPa, x1 = 0.04999 | 111.971
299.97 K, 11008 kPa, x1 = 0.1002 | 122.717
299.97 K, 11999 kPa, x1 = 0.1002 | 133.29
299.97 K, 13003 kPa, x1 = 0.1002 | 143.858
299.97 K, 13997 kPa, x1 = 0.1002 | 154.176
299.97 K, 14807 kPa, x1 = 0.1002 | 162.461
299.97 K, 15370 kPa, x1 = 0.1002 | 168.159
299.98 K, 7997.5 kPa, x1 = 0.1002 | 89.866
299.98 K, 11889 kPa, x1 = 0.04999 | 132.063
299.98 K, 13997 kPa, x1 = 0.04999 | 154.113
299.98 K, 15997 kPa, x1 = 0.04999 | 174.35
299.98 K, 16109 kPa, x1 = 0.1002 | 175.535
299.98 K, 17997 kPa, x1 = 0.04999 | 193.879
299.98 K, 17999 kPa, x1 = 0.1002 | 193.977
299.98 K, 19830 kPa, x1 = 0.1002 | 211.228
299.98 K, 19957 kPa, x1 = 0.04999 | 212.314
324.97 K, 13743 kPa, x1 = 0.04999 | 137.825
324.98 K, 996.21 kPa, x1 = 0.04999 | 10.328
324.98 K, 997.48 kPa, x1 = 0.1002 | 10.342
324.98 K, 1970.2 kPa, x1 = 0.1002 | 20.421
324.98 K, 1981.3 kPa, x1 = 0.04999 | 20.531
324.98 K, 2991.3 kPa, x1 = 0.04999 | 30.967
324.98 K, 3998.5 kPa, x1 = 0.1002 | 41.357
324.98 K, 4008.5 kPa, x1 = 0.04999 | 41.449
324.98 K, 4980 kPa, x1 = 0.04999 | 51.417
324.98 K, 5960.8 kPa, x1 = 0.04999 | 61.428
324.98 K, 6000 kPa, x1 = 0.1002 | 61.847
324.98 K, 7025.8 kPa, x1 = 0.04999 | 72.228
324.98 K, 7991 kPa, x1 = 0.04999 | 81.935
324.98 K, 7999.4 kPa, x1 = 0.1002 | 82.05
324.98 K, 8998.7 kPa, x1 = 0.04999 | 91.988
